Inhibition data for 33 compounds are collected here from patent US8546392B2, “17Beta-hydroxysteroid dehydrogenase type 1 inhibitors for the treatment of hormone-related diseases” (Universitaet des Saarlandes, priority 2008, dated 2013).

In the experiment the target is 17β-HSD1 (Homo sapiens (Human), UniProt P14061). The experiment in a line: 17β-HSD1 test assay (recombinant protein from Sf9 insect cells, 3H-estrone/NADPH). Type of experiment: biochemical. The conditions noted are these: for inhibition at 1 µM: read-out: HSD 1 μM (% inhibition of HSD1), inhibitor 1 μM; for inhibition at 0.1 µM: read-out: HSD1 100 nM (% inhibition), inhibitor 100 nM. How it is done:
Recombinant protein obtained from Sf9 insect cells (0.1 μg/ml) is incubated with 20 mM KH2PO4, pH 7.4, 30 nM ^3H-estrone and 1 mM NADPH for 30 min at RT in the presence of the potential inhibitor in a concentration of 1 μM or 100 nM. The stock solutions of the compounds are prepared in DMSO (dimethylsulfoxide) so that the final concentration of DMSO in the sample is 1%. After the prescribed incubation time, the reaction is quenched by adding trichloroacetic acid (10% final concentration). The samples are centrifuged in microtitration plates at 400 rpm for 10 min, and the supernatants are charged on a reversed-phase HPLC equipped with a Waters Symmetrie C18 column and Waters Sentry Guard column. The isocratic HPLC run is performed at RT with a flow rate of 1 ml/min and acetonitrile/water 48:52 as the eluent. The radioactivity was measured by means of a Packard Flow Scintillation Analyzer. […]

Chain of 17β-HSD1 (P14061 whole entry): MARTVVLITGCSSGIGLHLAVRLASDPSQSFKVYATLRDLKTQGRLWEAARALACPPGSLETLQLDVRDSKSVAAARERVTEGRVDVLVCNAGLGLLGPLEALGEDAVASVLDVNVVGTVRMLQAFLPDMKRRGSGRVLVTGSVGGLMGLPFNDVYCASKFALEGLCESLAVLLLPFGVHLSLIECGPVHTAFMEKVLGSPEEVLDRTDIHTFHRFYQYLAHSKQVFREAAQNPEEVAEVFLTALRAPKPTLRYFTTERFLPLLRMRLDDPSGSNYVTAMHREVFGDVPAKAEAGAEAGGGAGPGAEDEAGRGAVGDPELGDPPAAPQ

Turning to `O=[N+]([O-])c1cccc(-c2ccc3cc(O)ccc3c2)c1` [Compound 22, 6-(3-Nitrophenyl)-naphthalene-2-ol], the inhibition at 1 µM was under 10% and the inhibition at 0.1 µM is under 10%.

With `Nc1cccc(-c2ccc3cc(O)ccc3c2)c1` [Compound 23, 6-(3-Aminophenyl)-naphthalen-2-ol], the inhibition at 1 µM was under 10% and the inhibition at 0.1 µM was under 10%.

Take `Oc1cccc(-c2ccc3c(O)cccc3c2)c1` [Compound 24, 6-(3-Hydroxyphenyl)-1-naphthol]: the inhibition at 1 µM was under 10% and the inhibition at 0.1 µM was under 10%.

On to `COc1ccc(-c2ccc3c(O)cccc3c2)cc1` [Compound 25, 6-(4-Methoxyphenyl)-1-naphthol], for which the inhibition at 1 µM is under 10% and the inhibition at 0.1 µM was under 10%.

For `Cc1cc(O)cc(-c2ccc3cc(O)ccc3c2)c1` [Compound 26, 6-(3-Hydroxy-5-methylphenyl)-2-naphthol], the inhibition at 1 µM is 41.7% and the inhibition at 0.1 µM was 14.3%.

For the compound `Oc1ccc(-c2cc(O)cc(-c3ccc4cc(O)ccc4c3)c2)cc1` [Compound 27, 5-(6-Hydroxy-2-naphthyl)-1,1′-biphenyl-3,4′-diol], the inhibition at 1 µM is under 10% and the inhibition at 0.1 µM is under 10%.

As to `Oc1cc(-c2ccc3cc(O)ccc3c2)cc(-c2ccc3cc(O)ccc3c2)c1` [Compound 28, 6-[3-Hydroxy-5-(6-hydroxy-2-naphthyl)phenyl]-2-naphthol], the inhibition at 1 µM is under 10% and the inhibition at 0.1 µM was under 10%.

As to `CNC(=O)c1cc(O)cc(-c2ccc3cc(O)ccc3c2)c1` [Compound 29, 3-Hydroxy-5-(6-hydroxynaphthalen-2-yl)-N-methylbenzamide], the inhibition at 1 µM was under 10% and the inhibition at 0.1 µM is under 10%.

Consider `O=C(Nc1ccccc1)c1cc(O)cc(-c2ccc3cc(O)ccc3c2)c1` [Compound 30, 3-Hydroxy-5-(6-hydroxynaphthalene-2-yl)-N-phenylbenzamide], for which the inhibition at 1 µM was under 10% and the inhibition at 0.1 µM was under 10%.

For the compound `CNC(=O)/C=C/c1cc(O)cc(-c2ccc3cc(O)ccc3c2)c1` [Compound 31, (E)-3-[3-Hydroxy-5-(6-hydroxynaphthalene-2-yl)phenyl]-N-methylacrylamide], the inhibition at 1 µM was under 10% and the inhibition at 0.1 µM is under 10%.

Regarding `O=C(/C=C/c1cc(O)cc(-c2ccc3cc(O)ccc3c2)c1)Nc1ccccc1` [Compound 32, (E)-3-[3-Hydroxy-5-(6-hydroxynaphthalene-2-yl)phenyl]-N-phenylacrylamide], the inhibition at 1 µM worked out at 19.6% and the inhibition at 0.1 µM is under 10%.

For the compound `CNC(=O)CCc1cc(O)cc(-c2ccc3cc(O)ccc3c2)c1` [Compound 33, 3-[3-Hydroxy-5-(6-hydroxynaphthalene-2-yl)phenyl]-N-methylpropionamide], the inhibition at 1 µM was under 10% and the inhibition at 0.1 µM is under 10%.

On to `O=C(CCc1cc(O)cc(-c2ccc3cc(O)ccc3c2)c1)Nc1ccccc1` [Compound 34, 3-[3-Hydroxy-5-(6-hydroxynaphthalene-2-yl)phenyl]-N-phenylpropionamide], for which the inhibition at 1 µM turned out to be 13.6% and the inhibition at 0.1 µM is under 10%.

With `CC(=O)Nc1ccc(-c2ccc3cc(O)ccc3c2)cc1O` [Compound 35, N-[2-Hydroxy-4-(6-hydroxy-2-naphthyl)phenyl]acetamide], the inhibition at 1 µM was under 10% and the inhibition at 0.1 µM is under 10%.

Consider `O=C(Nc1ccc(-c2ccc3cc(O)ccc3c2)cc1O)c1ccccc1` [Compound 36, N-[2-Hydroxy-4-(6-hydroxy-2-naphthyl)phenyl]benzamide], for which the inhibition at 1 µM is under 10% and the inhibition at 0.1 µM is under 10%.

For `CNC(=O)c1cc2cc(-c3cccc(O)c3)ccc2cc1O` [Compound 37, 3-Hydroxy-7-(3-hydroxyphenyl)-N-methyl-2-naphthamide], the inhibition at 1 µM was found to be 18% and the inhibition at 0.1 µM is under 10%.

With `O=C(Nc1ccccc1)c1cc2cc(-c3cccc(O)c3)ccc2cc1O` [Compound 38, 3-Hydroxy-7-(3-hydroxyphenyl)-N-phenyl-2-naphthamide], the inhibition at 1 µM was 62% and the inhibition at 0.1 µM turned out to be 17%.

`O=C(c1c(O)ccc2cc(-c3cccc(O)c3)ccc12)N1CCOCC1` [Compound 44, (2-Hydroxy-6-(3-hydroxyphenyl)naphthalene-1-yl)(morpholino)methanone]: the inhibition at 1 µM was 62.4% and the inhibition at 0.1 µM is 27.8%.

In the case of `O=C(c1c(O)ccc2cc(-c3cccc(O)c3)ccc12)N1CCNCC1` [Compound 45, (2-Hydroxy-6-(3-hydroxyphenyl)naphthalene-1-yl)(piperazin-1-yl)methanone], the inhibition at 1 µM stood at 44.5% and the inhibition at 0.1 µM is under 10%.

With `O=C(Nc1nccs1)c1c(O)ccc2cc(-c3cccc(O)c3)ccc12` [Compound 46, 2-Hydroxy-6-(3-hydroxyphenyl)-N-(thiazol-2-yl)-1-naphthamide], the inhibition at 1 µM was 53% and the inhibition at 0.1 µM is under 10%.

With `Cc1noc(NC(=O)c2c(O)ccc3cc(-c4cccc(O)c4)ccc23)c1C` [Compound 47, N-(3,4-Dimethylisoxazol-5-yl)-2-hydroxy-6-(3-hydroxyphenyl)-1-naphthamide], the inhibition at 1 µM was determined as 70% and the inhibition at 0.1 µM was determined as 43%.

As to `O=C(Nc1ccccn1)c1c(O)ccc2cc(-c3cccc(O)c3)ccc12` [Compound 49, 2-Hydroxy-6-(3-hydroxyphenyl)-N-(pyridin-2-yl)-1-naphthamide], the inhibition at 1 µM came out at 84% and the inhibition at 0.1 µM came out at 37%.

On to `O=C(Nc1ncccn1)c1c(O)ccc2cc(-c3cccc(O)c3)ccc12` [Compound 50, 2-Hydroxy-6-(3-hydroxyphenyl)-N-(pyrimidin-2-yl)-1-naphthamide], for which the inhibition at 1 µM worked out at 40% and the inhibition at 0.1 µM is under 10%.

For `O=C(c1c(O)ccc2cc(-c3cccc(O)c3)ccc12)N1CCCCC1` [Compound 51, (2-Hydroxy-6-(3-hydroxyphenyl)naphthalene-1-yl)(piperidin-1-yl)methanone], the inhibition at 1 µM stood at 73.4% and the inhibition at 0.1 µM was 28.8%.

For `O=C(Nc1nccs1)c1cccc(-c2c(O)ccc3cc(-c4cccc(O)c4)ccc23)c1` [Compound 71, 3-(2-Hydroxy-6-(3-hydroxyphenyl)naphthalene-1-yl)-N-(thiazol-2-yl)benzamide], the inhibition at 1 µM worked out at 74.7% and the inhibition at 0.1 µM is 66.4%.

As to `O=S(=O)(Nc1cccc(-c2c(O)ccc3cc(-c4cccc(O)c4)ccc23)c1)c1cccc2cccnc12` [Compound 73, N-{3-[2-hydroxy-6-(3-hydroxyphenyl)-1-naphthyl]phenyl}quinoline-8-sulfonamide], the inhibition at 1 µM was 80.5% and the inhibition at 0.1 µM amounted to 71.2%.

For `O=S(=O)(Nc1cccc(-c2c(O)ccc3cc(-c4cccc(O)c4)ccc23)c1)c1ccc(Cl)s1` [Compound 74, 5-chloro-N-{3-[2-hydroxy-6-(3-hydroxyphenyl)-1-naphthyl]-phenyl}thiophene-2-sulfonamide], the inhibition at 1 µM was 78% and the inhibition at 0.1 µM came to 46.4%.

For `N#Cc1ccccc1S(=O)(=O)Nc1cccc(-c2c(O)ccc3cc(-c4cccc(O)c4)ccc23)c1` [Compound 76, 2-cyano-N-{3-[2-hydroxy-6-(3-hydroxyphenyl)-1-naphthyl]phenyl}benzenesulfonamide], the inhibition at 1 µM turned out to be 79.7% and the inhibition at 0.1 µM stood at 62.1%.

Consider `O=[N+]([O-])c1cc(S(=O)(=O)Nc2cccc(-c3c(O)ccc4cc(-c5cccc(O)c5)ccc34)c2)ccc1Cl` [Compound 77, 4-chloro-N-{3-[2-hydroxy-6-(3-hydroxyphenyl)-1-naphthyl]phenyl}-3-nitrobenzenesulfonamide], for which the inhibition at 1 µM was determined as 79.9% and the inhibition at 0.1 µM stood at 73.2%.

Regarding `COC(=O)c1csc(S(=O)(=O)Nc2cccc(-c3c(O)ccc4cc(-c5cccc(O)c5)ccc34)c2)c1OC` [Compound 78, methyl 5-{3-[2-hydroxy-6-(3-hydroxyphenyl)-1-naphthyl]phenylsulfamoyl}-4-methoxythiophene-3-carboxylate], the inhibition at 1 µM came out at 79.2% and the inhibition at 0.1 µM worked out at 63.7%.

With `CC(=O)Nc1ccc(S(=O)(=O)Nc2cccc(-c3c(O)ccc4cc(-c5cccc(O)c5)ccc34)c2)cc1` [Compound 79, N-(4-{3-[2-hydroxy-6-(3-hydroxyphenyl)-1-naphthyl]phenylsulfamoyl}phenyl)acetamide], the inhibition at 1 µM worked out at 80.2% and the inhibition at 0.1 µM turned out to be 73.8%.

Turning to `CSc1nccc(-c2ccc(S(=O)(=O)Nc3cccc(-c4c(O)ccc5cc(-c6cccc(O)c6)ccc45)c3)s2)n1` [Compound 80, N-{3-[2-hydroxy-6-(3-hydroxyphenyl)-1-naphthyl]phenyl}-5-[2-(methylsulfanyl)pyrimidin-4-yl]thiophene-2-sulfonamide], the inhibition at 1 µM came out at 79.4% and the inhibition at 0.1 µM came to 64.7%.

As to `O=[N+]([O-])c1ccc(S(=O)(=O)Nc2cccc(-c3c(O)ccc4cc(-c5cccc(O)c5)ccc34)c2)cc1` [Compound 81, N-{3-[2-hydroxy-6-(3-hydroxyphenyl)-1-naphthyl]phenyl}-4-nitrobenzenesulfonamide], the inhibition at 1 µM came out at 82.9% and the inhibition at 0.1 µM stood at 71.5%.
